The IC50 is the concentration that inhibits the measured activity by half. Lower therefore signals greater potency in that assay.

human Nav1.8, sequence (Q9Y5Y9 whole entry): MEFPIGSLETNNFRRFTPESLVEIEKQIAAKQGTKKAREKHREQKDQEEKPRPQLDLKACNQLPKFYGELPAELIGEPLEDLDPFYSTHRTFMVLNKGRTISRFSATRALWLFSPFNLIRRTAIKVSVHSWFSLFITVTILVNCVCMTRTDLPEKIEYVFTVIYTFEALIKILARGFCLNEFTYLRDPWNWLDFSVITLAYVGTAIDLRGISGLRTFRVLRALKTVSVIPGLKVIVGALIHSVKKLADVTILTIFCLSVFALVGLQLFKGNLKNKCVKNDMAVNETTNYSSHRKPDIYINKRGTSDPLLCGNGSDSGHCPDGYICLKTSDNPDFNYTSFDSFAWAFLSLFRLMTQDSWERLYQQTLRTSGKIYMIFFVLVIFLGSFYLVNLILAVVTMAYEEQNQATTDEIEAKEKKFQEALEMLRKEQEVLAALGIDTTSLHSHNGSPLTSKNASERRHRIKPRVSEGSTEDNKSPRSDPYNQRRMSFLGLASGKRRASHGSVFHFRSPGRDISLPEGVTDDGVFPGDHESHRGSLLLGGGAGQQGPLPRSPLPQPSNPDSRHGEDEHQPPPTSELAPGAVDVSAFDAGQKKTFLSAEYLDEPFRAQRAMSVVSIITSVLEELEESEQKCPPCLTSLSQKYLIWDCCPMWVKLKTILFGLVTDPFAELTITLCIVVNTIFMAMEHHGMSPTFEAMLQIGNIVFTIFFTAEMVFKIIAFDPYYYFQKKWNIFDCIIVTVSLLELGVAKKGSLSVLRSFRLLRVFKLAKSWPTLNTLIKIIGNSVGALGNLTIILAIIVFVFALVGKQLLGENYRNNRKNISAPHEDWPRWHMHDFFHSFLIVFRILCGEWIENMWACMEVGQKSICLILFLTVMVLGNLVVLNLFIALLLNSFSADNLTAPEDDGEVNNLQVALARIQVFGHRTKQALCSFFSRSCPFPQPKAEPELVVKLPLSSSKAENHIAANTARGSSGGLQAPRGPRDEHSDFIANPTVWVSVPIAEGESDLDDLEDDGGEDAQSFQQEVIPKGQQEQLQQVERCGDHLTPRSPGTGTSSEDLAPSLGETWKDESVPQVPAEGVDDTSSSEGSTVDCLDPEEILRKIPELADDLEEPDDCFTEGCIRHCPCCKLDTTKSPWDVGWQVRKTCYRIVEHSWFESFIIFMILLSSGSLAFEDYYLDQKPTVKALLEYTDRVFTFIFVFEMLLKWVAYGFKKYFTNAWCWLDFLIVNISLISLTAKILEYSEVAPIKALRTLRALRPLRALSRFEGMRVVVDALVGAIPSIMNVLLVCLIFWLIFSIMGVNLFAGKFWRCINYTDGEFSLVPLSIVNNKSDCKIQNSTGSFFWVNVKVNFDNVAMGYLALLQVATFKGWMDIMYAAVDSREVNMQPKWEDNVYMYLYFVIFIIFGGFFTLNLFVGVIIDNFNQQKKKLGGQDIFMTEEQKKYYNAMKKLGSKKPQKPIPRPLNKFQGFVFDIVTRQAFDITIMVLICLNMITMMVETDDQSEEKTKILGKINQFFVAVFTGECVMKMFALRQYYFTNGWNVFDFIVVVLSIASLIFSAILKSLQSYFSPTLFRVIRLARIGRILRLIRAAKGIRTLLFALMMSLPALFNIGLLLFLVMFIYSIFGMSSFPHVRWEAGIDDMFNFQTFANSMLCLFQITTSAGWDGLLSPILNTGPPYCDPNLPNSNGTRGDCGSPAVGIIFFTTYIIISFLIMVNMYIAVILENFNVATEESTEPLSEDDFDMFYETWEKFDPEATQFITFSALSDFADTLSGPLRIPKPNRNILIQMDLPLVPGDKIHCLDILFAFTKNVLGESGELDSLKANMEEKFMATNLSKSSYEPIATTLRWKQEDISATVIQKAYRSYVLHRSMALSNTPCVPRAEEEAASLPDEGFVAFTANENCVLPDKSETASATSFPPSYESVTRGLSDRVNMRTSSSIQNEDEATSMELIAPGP

The experiment addresses human Nav1.8 (Homo sapiens (Human), UniProt Q9Y5Y9). Nature of the experiment: E-VIPR optical membrane potential assay with electrical stimulation. It counts as cell-based. To be noted: HEK cells expressing human Nav1.8. The source says:
Sodium channels are voltage-dependent proteins that can be activated by inducing membrane voltage changes by applying electric fields. […] The instrument comprises a microtiter plate handler, an optical system for exciting the coumarin dye while simultaneously recording the coumarin and oxonol emissions, a waveform generator, a current- or voltage-controlled amplifier, and a device for inserting electrodes in well. Under integrated computer control, this instrument passes user-programmed electrical stimulus protocols to cells within the wells of the microtiter plate.
24 hours before the assay on E-VIPR, HEK cells expressing human Nav1.8 were seeded in 384-well poly-lysine coated plates at 15,000-20,000 cells per well. […] Cells were grown in vented cap flasks, in 90% humidity and 5% CO2.
To make the solution added volume of 10% Pluronic F127 stock equal to volumes of CC2-DMPE+DiSBAC6(3). The order of preparation was first mixing Pluronic and CC2-DMPE, then adding DiSBAC6(3) while vortexing, then adding Bath1+β-Cyclodextrin.
1) Pre-spotted compounds (in neat DMSO) into compound plates. […] Final compound plate volume was 80 μL (80-fold intermediate dilution from 1 μL DMSO spot; 160-fold final dilution after transfer to cell plate).
2) Prepared Hexyl Dye Solution.
3) Prepared cell plates. On the day of the assay, medium was aspirated and cells were washed three times with 100 μL of Bath1 Solution, maintaining 25 μL residual volume in each well.
4) Dispensed 25 μL per well of Hexyl Dye Solution into cell plates. Incubated for 20-35 minutes at room temp or ambient conditions.
5) Dispensed 80 μL per well of Bath1 into compound plates. Acid Yellow-17 (1 mM) was added and Potassium Chloride was altered from 4.5 to 20 mM depending on the NaV subtype and assay sensitivity.
6) Washed cell plates three times with 100 μL per well of Bath1, leaving 25 μL of residual volume. Then transferred 25 uL per well from Compound Plates to Cell Plates. Incubated for 20-35 minutes at room temp/ambient condition.
7) Read Plate on E-VIPR. […] A pre-stimulus recording was performed for 0.5 seconds to obtain the un-stimulated intensities baseline. The stimulatory waveform was followed by 0.5 seconds of post-stimulation recording to examine the relaxation to the resting state.
Data was analyzed and reported as normalized ratios of emission intensities measured in the 460 nm and 580 nm channels. The response as a function of time was reported as the ratios obtained using the following formula: […]
The data was further reduced by calculating the initial (Ri) and final (Rf) ratios. These were the average ratio values during part or all of the pre-stimulation period, and during sample points during the stimulation period. The response to the stimulus R=Rf/Ri was then calculated and reported as a function of time.
Control responses were obtained by performing assays in the presence of a compound with the desired properties (positive control), such as tetracaine, and in the absence of pharmacological agents (negative control). Responses to the negative (N) and positive (P) controls were calculated as above. The compound antagonist activity A is defined as:
[formula] where R is the ratio response of the test compound
`COc1ccc(Oc2ccc(C(F)(F)F)cc2C(=O)Nc2cc[nH]c(=O)c2)cc1` [Compound 45, 2-(4-methoxyphenoxy)-N-(2-oxo-1,2-dihydropyridin-4-yl)-5-(trifluoromethyl)benzamide] came in with an IC50 of 64 nM. The figure for `COc1ccc(Oc2ccc(F)cc2C(=O)Nc2cc[nH]c(=O)c2)c(Cl)c1` [Compound 103, 2-(2-chloro-4-methoxyphenoxy)-5-fluoro-N-(2-oxo-1,2-dihydropyridin-4-yl)benzamide] is 330 nM. The result for `CC(C)COc1ccc(C(F)(F)F)cc1C(=O)Nc1cc[nH]c(=O)c1` [Compound 131, 2-isobutoxy-N-(2-oxo-1,2-dihydropyridin-4-yl)-5-(trifluoromethyl)benzamide] reads 1500 nM.

`O=C(Nc1cc[nH]c(=O)c1)c1ccc(C(F)(F)F)cc1OC1C[C@@H]2C[C@@H]2C1` (stereo partly drawn) [Compound 125, 2-((1R,5S)-bicyclo[3.1.0]hexan-3-yloxy)-N-(2-oxo-1,2-dihydropyridin-4-yl)-4-(trifluoromethyl)benzamide] displayed a half-maximal inhibitory concentration (IC50) of 17500 nM. The figure for `O=C(Nc1cc[nH]c(=O)c1)c1ccc(Cl)cc1Oc1ccc(F)cc1F` [Compound 13, 4-chloro-2-(2,4-difluorophenoxy)-N-(2-oxo-1,2-dihydropyridin-4-yl)benzamide] is 106 nM; for `Cc1ncccc1Oc1ccc(C(F)(F)F)cc1C(=O)Nc1cc[nH]c(=O)c1` [Compound 150, 2-((2-methylpyridin-3-yl)oxy)-N-(2-oxo-1,2-dihydropyridin-4-yl)-5-(trifluoromethyl)benzamide] it is 6600 nM; for `O=C(Nc1ccc(=O)[nH]c1)c1ccc(C(F)(F)F)cc1Oc1ccc(C(F)(F)F)nc1` [Compound 145, N-(6-oxo-1,6-dihydropyridin-3-yl)-4-(trifluoromethyl)-2-((6-(trifluoromethyl)pyridin-3-yl)oxy)benzamide] it is 5000 nM. The compound `COc1cc(F)ccc1Oc1ccc(Cl)cc1C(=O)Nc1cc[nH]c(=O)c1` [Compound 70, 5-chloro-2-(4-fluoro-2-methoxyphenoxy)-N-(2-oxo-1,2-dihydropyridin-4-yl)benzamide] returned a 50% inhibitory concentration (IC50) of 13 nM. The result for `O=C(Nc1cc[nH]c(=O)c1)c1cc(C(F)(F)F)ccc1OCCC(F)(F)F` [Compound 132, N-(2-oxo-1,2-dihydropyridin-4-yl)-5-(trifluoromethyl)-2-(3,3,3-trifluoropropoxy)benzamide] reads 330 nM; that for `COc1ccc(Oc2ccc(C(F)(F)F)cc2C(=O)Nc2cc[nH]c(=O)c2)c(C)c1` [Compound 63, 2-(4-methoxy-2-methylphenoxy)-N-(2-oxo-1,2-dihydropyridin-4-yl)-5-(trifluoromethyl)benzamide], 18 nM. The figure for `COc1ccc(Oc2ccc(Cl)cc2C(=O)Nc2cc[nH]c(=O)c2)cc1F` [Compound 71, 5-chloro-2-(3-fluoro-4-methoxyphenoxy)-N-(2-oxo-1,2-dihydropyridin-4-yl)benzamide] is 92 nM. As for `O=C(Nc1cc[nH]c(=O)c1)c1cc(Cl)ccc1Oc1ccc(F)cc1` [Compound 67, 5-chloro-2-(4-fluorophenoxy)-N-(2-oxo-1,2-dihydropyridin-4-yl)-benzamide], the IC50 turned out to be 69 nM. The figure for `COc1ccc(Oc2cc(C(F)(F)F)ccc2C(=O)Nc2cc[nH]c(=O)c2)c(F)c1` [Compound 84, 2-(2-fluoro-4-methoxyphenoxy)-N-(2-oxo-1,2-dihydropyridin-4-yl)-4-(trifluoromethyl)benzamide] is 46 nM; for `O=C(Nc1cc[nH]c(=O)c1)c1cc(OC(F)(F)F)ccc1Oc1c(F)cccc1F` [Compound 34, 2-(2,6-difluorophenoxy)-N-(2-oxo-1,2-dihydropyridin-4-yl)-5-(trifluoromethoxy)benzamide] it is 12000 nM; for `CC(C)(C)Oc1ccc(Oc2ccc(F)cc2C(=O)Nc2cc[nH]c(=O)c2)cc1` [Compound 97, 2-(4-(tert-butoxy)phenoxy)-5-fluoro-N-(2-oxo-1,2-dihydropyridin-4-yl)benzamide] it is 745 nM. The compound `O=C(Nc1cc[nH]c(=O)c1)c1ccc(Cl)cc1Oc1ccc(F)cc1Cl` [Compound 14, 4-chloro-2-(2-chloro-4-fluorophenoxy)-N-(2-oxo-1,2-dihydropyridin-4-yl)benzamide] gave a concentration for half-maximal inhibition (IC50) of 65 nM. The result for `O=C(Nc1cc[nH]c(=O)c1)c1ccc(C(F)(F)F)cc1OCc1cc(F)ccc1O` [Compound 159, 2-((5-fluoro-2-hydroxybenzyl)oxy)-N-(2-oxo-1,2-dihydropyridin-4-yl)-4-(trifluoromethyl)benzamide] reads 2600 nM; that for `O=C(Nc1cc[nH]c(=O)c1)c1ccc(C(F)(F)F)cc1Oc1ccc(F)cc1` [Compound 5, 2-(4-fluorophenoxy)-N-(2-oxo-1,2-dihydropyridin-4-yl)-4-(trifluoromethyl)benzamide], 39 nM; that for `O=C(Nc1cc[nH]c(=O)c1)c1cc(C(F)(F)F)ccc1Oc1ccc(F)cc1F` [Compound 24, 2-(2,4-difluorophenoxy)-N-(2-oxo-1,2-dihydropyridin-4-yl)-5-(trifluoromethyl)benzamide], 58 nM. The result for “2-(4-fluorophenoxy)-N-(1-(2-hydroxyethyl)-2-oxo-1,2-dihydropyridin-4-yl)-4-(trifluoromethyl)benzamide [Compound 85]” reads 2800 nM. The compound `Cc1cc(F)ccc1Oc1ccc(C(F)(F)F)cc1C(=O)Nc1cc(Cl)[nH]c(=O)c1` [Compound 60, N-(6-chloro-2-oxo-1,2-dihydropyridin-4-yl)-2-(4-fluoro-2-methylphenoxy)-5-(trifluoromethyl)benzamide] registered an IC50 of 126 nM. Regarding `O=C(Nc1cc[nH]c(=O)c1)c1cc(Cl)ccc1Oc1ccc(F)cc1F` [Compound 69, 5-chloro-2-(2,4-difluorophenoxy)-N-(2-oxo-1,2-dihydropyridin-4-yl)benzamide], the IC50 amounted to 112 nM. The result for `O=C(Nc1cc[nH]c(=O)c1)c1cc(F)ccc1Oc1ccc(OCC(F)(F)F)cc1` [Compound 107, 5-fluoro-N-(2-oxo-1,2-dihydropyridin-4-yl)-2-(4-(2,2,2-trifluoroethoxy)phenoxy)benzamide] reads 390 nM; that for `O=C(Nc1cc[nH]c(=O)c1)c1ccc(C(F)(F)F)cc1Oc1ccccc1OC(F)(F)F` [Compound 80, N-(2-oxo-1,2-dihydropyridin-4-yl)-2-(2-(trifluoromethoxy)phenoxy)-4-(trifluoromethyl)benzamide], 105 nM; that for `O=C(Nc1cc[nH]c(=O)c1)c1c(Oc2ccccc2)cc(C(F)(F)F)cc1C(F)(F)F` [Compound 156, N-(2-oxo-1,2-dihydropyridin-4-yl)-2-phenoxy-4,6-bis(trifluoromethyl)benzamide], 52 nM. On to `O=C(Nc1cc[nH]c(=O)c1)c1ccc(Cl)cc1Oc1c(F)cccc1F` [Compound 19, 4-chloro-2-(2,6-difluorophenoxy)-N-(2-oxo-1,2-dihydropyridin-4-yl)benzamide], for which 6000 nM corresponded to half-maximal inhibition (IC50).

Regarding `O=C(Nc1cc[nH]c(=O)c1)c1cc(OC(F)(F)F)ccc1Oc1ccc(F)cc1` [Compound 38, 2-(4-fluorophenoxy)-N-(2-oxo-1,2-dihydropyridin-4-yl)-5-(trifluoromethoxy)benzamide], inhibition was half-maximal at 69 nM (IC50). As to `O=C(Nc1cc[nH]c(=O)c1)c1ccc(C(F)(F)F)cc1Oc1ccc(F)cc1Cl` [Compound 77, 2-(2-chloro-4-fluorophenoxy)-N-(2-oxo-1,2-dihydropyridin-4-yl)-4-(trifluoromethyl)benzamide], it took 29 nM to reach half-maximal inhibition (IC50). The result for `Cc1cc(F)ccc1Oc1cc(C(F)(F)F)cc(C(F)(F)F)c1C(=O)Nc1cc[nH]c(=O)c1` [Compound 153, 2-(4-fluoro-2-methylphenoxy)-N-(2-oxo-1,2-dihydropyridin-4-yl)-4,6-bis(trifluoromethyl)benzamide] reads 10 nM; that for `Cc1cc(C)c(Oc2ccc(C(F)(F)F)cc2C(=O)Nc2cc[nH]c(=O)c2)cc1C` [Compound 93, N-(2-oxo-1,2-dihydropyridin-4-yl)-5-(trifluoromethyl)-2-(2,4,5-trimethylphenoxy)benzamide], 1450 nM; that for `COc1cc(F)ccc1Oc1cc(Cl)ccc1C(=O)Nc1cc[nH]c(=O)c1` [Compound 16, 4-chloro-2-(4-fluoro-2-methoxyphenoxy)-N-(2-oxo-1,2-dihydropyridin-4-yl)benzamide], 14 nM.

Values taken from patent publication US9051270B2, “Pyridone amides as modulators of sodium channels” (Vertex Pharmaceuticals Incorporated, priority 2013, dated 2015).
